Measurements taken from ChEMBL document CHEMBL2346520, “Design, synthesis and biological evaluation of novel imidazo[4,5-c]pyridinecarboxamide derivatives as PARP-1 inhibitors” (Bioorg Med Chem Lett, 2013).
pIC50: −log10 of the molar value.

What was measured:
[1] = biological target: T1, Poly [ADP-ribose] polymerase 1 (Homo sapiens, UniProt P09874); test: Inhibition of PARP1 (unknown origin)
[2] = biological target: T1, Poly [ADP-ribose] polymerase 1; conditions: 100 uM
Description: Inhibition of PARP1 (unknown origin) at 100 uM

T1 sequence (P09874 whole entry): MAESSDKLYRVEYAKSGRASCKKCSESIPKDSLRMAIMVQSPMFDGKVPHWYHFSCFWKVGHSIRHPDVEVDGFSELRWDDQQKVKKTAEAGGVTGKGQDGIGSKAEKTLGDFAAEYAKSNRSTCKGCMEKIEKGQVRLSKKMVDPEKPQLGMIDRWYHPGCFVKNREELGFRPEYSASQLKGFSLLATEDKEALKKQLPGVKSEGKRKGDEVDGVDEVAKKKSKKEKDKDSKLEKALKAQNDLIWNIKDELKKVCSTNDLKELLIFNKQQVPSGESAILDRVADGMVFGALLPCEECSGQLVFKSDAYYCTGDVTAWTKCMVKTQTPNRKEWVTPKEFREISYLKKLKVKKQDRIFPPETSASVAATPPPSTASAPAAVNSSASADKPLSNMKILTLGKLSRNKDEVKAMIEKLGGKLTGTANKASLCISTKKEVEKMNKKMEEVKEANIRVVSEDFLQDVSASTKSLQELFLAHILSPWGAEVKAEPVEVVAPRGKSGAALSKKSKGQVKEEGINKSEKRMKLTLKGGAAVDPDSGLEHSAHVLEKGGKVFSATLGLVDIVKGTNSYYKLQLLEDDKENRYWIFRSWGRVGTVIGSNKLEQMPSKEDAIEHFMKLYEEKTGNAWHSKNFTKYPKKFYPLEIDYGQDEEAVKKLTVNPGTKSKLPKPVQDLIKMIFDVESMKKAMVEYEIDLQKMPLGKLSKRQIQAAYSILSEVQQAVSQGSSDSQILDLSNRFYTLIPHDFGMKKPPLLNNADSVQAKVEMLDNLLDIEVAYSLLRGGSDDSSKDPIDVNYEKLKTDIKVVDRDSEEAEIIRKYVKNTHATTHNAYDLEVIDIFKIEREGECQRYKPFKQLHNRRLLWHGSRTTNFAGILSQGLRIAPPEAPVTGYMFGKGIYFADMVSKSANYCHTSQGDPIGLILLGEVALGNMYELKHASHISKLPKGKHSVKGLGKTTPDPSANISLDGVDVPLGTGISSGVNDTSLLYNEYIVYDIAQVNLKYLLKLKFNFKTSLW

Structure (SMILES) | pIC50 [1] | inhibition [2] [%]
CC(C)N1CCCC(c2nc3c(C(N)=O)cncc3[nH]2)C1 (configuration not stated) | 6.19 | –
NC(=O)c1cncc2[nH]c(C3CCCNC3)nc12 (configuration not stated) | 6.20 | –
NC(=O)c1cncc2[nH]c(C3CCNCC3)nc12 | 6.08 | –
CCCN1CCCC(c2nc3c(C(N)=O)cncc3[nH]2)C1 (configuration not stated) | 6.03 | –
CN1CCC(c2nc3c(C(N)=O)cncc3[nH]2)CC1 | 5.84 | –
NC(=O)c1cccc(N)c1 | – | 100
CCCN1CCC(c2nc3c(C(N)=O)cncc3[nH]2)CC1 | 6.28 | –
